Data reported in ChEMBL document CHEMBL1201862, “PubChem BioAssay data set” (2004).
The source made the active and inactive calls.

Key:
[1] = target: Scavenger receptor class B member 1 (Mus musculus, UniProt Q61009); experiment: mouse SR-BI DiI-HDL uptake blockers – ldlA[mSR-BI] cells, fluorescence, cherry pick, dose response (AID 493194); type: functional, cell-based;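 also: cellular uptake of fluorescent DiI-labeled HDL measured as cell fluorescence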
HEK293 [2] = experiment: cells; details: Homo sapiens
Tumor necrosis factor = Tumor necrosis factor (Homo sapiens, UniProt P01375); experiment: analog potency on TNFa NF-kB signaling – cell-based, revised, SAR follow-up (AID 2337); type: functional
Tumor necrosis factor, sequence (P01375 whole entry, the tested form may be a part): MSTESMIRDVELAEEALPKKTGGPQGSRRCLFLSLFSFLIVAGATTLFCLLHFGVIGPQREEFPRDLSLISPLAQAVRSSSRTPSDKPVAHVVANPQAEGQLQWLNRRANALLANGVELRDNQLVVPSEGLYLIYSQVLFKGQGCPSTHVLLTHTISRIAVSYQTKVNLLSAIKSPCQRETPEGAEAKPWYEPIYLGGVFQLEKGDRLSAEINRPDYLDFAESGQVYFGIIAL

[3] = target: Nucleotide-binding oligomerization domain-containing protein 2 (Homo sapiens, UniProt Q9HC29); experiment: PubChem AID 2334; type: functional
[4] = target: T1, Nucleotide-binding oligomerization domain-containing protein 1 (Homo sapiens, UniProt Q9Y239); experiment: blockers of NOD1 pathway activity – revised, SAR follow-up (AID 2333); type: functional
T1 sequence (Q9Y239 whole entry): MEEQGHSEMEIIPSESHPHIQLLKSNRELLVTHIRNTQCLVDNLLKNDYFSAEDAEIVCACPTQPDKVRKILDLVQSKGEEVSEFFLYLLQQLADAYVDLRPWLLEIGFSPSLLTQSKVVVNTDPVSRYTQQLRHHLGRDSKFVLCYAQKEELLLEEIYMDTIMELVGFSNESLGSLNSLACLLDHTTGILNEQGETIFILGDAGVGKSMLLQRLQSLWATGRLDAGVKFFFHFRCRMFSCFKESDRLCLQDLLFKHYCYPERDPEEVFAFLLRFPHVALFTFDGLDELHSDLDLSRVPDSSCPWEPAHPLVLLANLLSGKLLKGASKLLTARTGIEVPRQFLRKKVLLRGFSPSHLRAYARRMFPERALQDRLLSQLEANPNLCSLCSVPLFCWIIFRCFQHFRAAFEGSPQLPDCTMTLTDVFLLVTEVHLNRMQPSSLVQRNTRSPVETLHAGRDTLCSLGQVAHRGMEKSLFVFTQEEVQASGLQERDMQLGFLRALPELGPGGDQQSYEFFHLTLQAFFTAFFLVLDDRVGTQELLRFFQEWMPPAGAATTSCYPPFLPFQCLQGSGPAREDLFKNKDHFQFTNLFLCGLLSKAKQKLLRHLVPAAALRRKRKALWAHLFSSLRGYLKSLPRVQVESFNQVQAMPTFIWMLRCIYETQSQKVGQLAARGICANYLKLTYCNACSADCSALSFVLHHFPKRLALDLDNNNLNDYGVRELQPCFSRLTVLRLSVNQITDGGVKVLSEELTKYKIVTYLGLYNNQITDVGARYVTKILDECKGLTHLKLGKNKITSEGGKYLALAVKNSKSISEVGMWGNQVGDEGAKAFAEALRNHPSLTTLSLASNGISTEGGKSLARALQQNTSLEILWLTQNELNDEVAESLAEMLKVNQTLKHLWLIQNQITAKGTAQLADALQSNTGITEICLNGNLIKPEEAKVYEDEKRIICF

[5] = target: Induced myeloid leukemia cell differentiation protein Mcl-1 (Homo sapiens, UniProt Q07820); type: functional
Induced myeloid leukemia cell differentiation protein Mcl-1, sequence (Q07820 whole entry): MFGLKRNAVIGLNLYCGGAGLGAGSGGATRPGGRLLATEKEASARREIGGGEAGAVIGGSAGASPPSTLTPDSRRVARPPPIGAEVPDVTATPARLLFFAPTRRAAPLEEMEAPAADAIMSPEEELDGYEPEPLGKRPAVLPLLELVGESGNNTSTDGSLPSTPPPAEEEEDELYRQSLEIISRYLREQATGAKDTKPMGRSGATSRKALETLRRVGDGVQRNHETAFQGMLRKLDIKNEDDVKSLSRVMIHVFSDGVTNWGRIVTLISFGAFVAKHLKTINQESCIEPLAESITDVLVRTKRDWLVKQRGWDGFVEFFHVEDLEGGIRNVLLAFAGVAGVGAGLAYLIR

Caspase-7 = Caspase-7 (Homo sapiens, UniProt P55210); experiment: caspase-7 enzyme inhibition, selectivity check – biochemical, DEVD-R110 fluorescence, cherry-pick, selectivity assay for caspase-6 inhibitor project, dose response (AID 743295); type: functional
Caspase-6 = Caspase-6 (Homo sapiens, UniProt P55212); experiment: inhibition of CASP6 peptide cleavage – biochemical, VEID-R110 fluorescence, cherry-pick, dose response (AID 720632)
Caspase-6, sequence (P55212 24-179 limits assumed): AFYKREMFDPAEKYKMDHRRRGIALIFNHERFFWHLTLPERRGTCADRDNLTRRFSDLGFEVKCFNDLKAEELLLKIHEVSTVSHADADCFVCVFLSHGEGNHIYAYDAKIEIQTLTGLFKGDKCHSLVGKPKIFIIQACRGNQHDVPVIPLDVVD
Caspase-6, sequence (P55212 194-293 limits assumed): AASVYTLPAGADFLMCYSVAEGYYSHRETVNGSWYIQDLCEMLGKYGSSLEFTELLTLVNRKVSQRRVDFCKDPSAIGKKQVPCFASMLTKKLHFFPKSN

Albumin = Albumin (Bos taurus, UniProt P02769); experiment: Counterscreen for inhibitors of T-cell receptor (TCR)-CD3 interaction: Fluorescence-based biochemical high throughput dose response assay to identify inhibitors of T-cell receptor (TCR)-CD3 interaction using a TAMRA-labeled BSA probe.; type: functional
Large T antigen = Large T antigen (Simian virus 40, UniProt P03070); type: functional, Betapolyomavirus macacae;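 also: Confirmatory-stage PubChem screen for compounds that inhibit SV40 T antigen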
Large T antigen, sequence (P03070 whole entry): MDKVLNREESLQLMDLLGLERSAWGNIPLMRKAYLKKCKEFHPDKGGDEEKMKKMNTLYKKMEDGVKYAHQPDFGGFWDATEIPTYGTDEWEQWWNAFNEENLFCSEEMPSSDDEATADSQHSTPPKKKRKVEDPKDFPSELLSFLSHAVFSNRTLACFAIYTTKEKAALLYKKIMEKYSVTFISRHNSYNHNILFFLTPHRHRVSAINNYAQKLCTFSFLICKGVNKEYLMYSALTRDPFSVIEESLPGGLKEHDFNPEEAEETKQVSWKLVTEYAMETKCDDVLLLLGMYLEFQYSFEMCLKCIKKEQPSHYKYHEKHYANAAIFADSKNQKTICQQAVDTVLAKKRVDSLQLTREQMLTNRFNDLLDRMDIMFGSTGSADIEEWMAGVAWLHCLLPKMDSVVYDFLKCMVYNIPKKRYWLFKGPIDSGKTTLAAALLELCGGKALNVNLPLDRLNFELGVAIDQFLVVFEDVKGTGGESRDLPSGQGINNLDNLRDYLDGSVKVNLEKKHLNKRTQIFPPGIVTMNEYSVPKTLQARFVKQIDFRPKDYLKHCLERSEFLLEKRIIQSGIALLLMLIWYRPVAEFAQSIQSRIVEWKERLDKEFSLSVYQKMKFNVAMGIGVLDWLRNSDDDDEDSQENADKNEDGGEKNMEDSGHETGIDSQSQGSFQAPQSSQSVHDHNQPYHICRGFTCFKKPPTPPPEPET

Caspase-3 = target: T2, Caspase-3 (Homo sapiens, UniProt P42574); experiment: human caspase-3 protease activity blockade – biochemical, fluorescence, cherry-picked samples, selectivity assay for caspase-6 allosteric inhibitor project, dose response (AID 743291)
T2 sequence (P42574 whole entry): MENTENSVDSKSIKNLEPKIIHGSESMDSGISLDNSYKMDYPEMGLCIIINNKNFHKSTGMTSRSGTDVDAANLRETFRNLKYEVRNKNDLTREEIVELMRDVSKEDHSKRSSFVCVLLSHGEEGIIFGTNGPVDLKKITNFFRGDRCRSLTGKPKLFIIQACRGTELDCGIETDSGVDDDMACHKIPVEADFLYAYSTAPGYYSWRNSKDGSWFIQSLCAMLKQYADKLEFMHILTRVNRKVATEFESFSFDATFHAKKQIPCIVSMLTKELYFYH

Caspase-8 = Caspase-8 (Homo sapiens, UniProt Q14790); experiment: inhibitors of purified CASP8 protease – biochemical, Z-IETD-R110 fluorescence, cherry-picked samples, selectivity assay for caspase-6 inhibitor project, dose response (AID 743294)
Caspase-8, sequence (Q14790 217-374 limits assumed): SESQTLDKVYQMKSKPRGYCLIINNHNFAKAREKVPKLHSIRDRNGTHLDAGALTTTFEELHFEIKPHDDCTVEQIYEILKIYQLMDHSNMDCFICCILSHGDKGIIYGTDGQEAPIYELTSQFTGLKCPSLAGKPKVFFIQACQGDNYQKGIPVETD
Caspase-8, sequence (Q14790 385-479 limits assumed): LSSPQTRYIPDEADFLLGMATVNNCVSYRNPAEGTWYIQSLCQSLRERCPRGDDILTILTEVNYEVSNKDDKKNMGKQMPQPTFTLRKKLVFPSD

[6] = target: Intestinal-type alkaline phosphatase (Homo sapiens, UniProt P09923); experiment: Dose Response confirmation of uHTS hits from a small molecule inhibitors of human intestinal alkaline phosphatase via a luminescent assay. [Related pubchem assays (depositor defined):AID2544, AID2574]; type: functional
Intestinal-type alkaline phosphatase, sequence (P09923 whole entry): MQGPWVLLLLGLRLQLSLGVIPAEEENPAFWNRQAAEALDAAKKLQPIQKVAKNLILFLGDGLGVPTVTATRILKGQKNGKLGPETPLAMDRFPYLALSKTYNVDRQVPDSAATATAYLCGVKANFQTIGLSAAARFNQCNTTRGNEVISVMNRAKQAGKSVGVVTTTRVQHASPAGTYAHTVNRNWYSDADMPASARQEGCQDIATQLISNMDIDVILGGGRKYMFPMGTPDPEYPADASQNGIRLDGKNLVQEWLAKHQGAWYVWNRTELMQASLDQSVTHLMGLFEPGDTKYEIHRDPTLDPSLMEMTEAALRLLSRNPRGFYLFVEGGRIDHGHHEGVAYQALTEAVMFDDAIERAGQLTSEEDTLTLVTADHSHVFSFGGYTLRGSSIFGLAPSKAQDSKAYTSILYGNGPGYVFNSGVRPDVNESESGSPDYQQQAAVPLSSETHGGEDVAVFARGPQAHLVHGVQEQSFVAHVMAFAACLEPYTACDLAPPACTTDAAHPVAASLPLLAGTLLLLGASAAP

[7] = HEK-293T viability loss after treatment – luminescence, T-cell screen hits, cytotoxicity control for TCR NF-kB inhibitor project, dose response (AID 489026); type: functional, cell-based;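 also: cells exposed to compound about 14 hours before the viability readout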
J774.A1 = experiment: Confirmation of image-based Screening Assay for Inhibitors of Phagocytosis. [Related pubchem assays (depositor defined):AID1029, AID1643]; type: functional, cell-based; details: Mus musculus
HEK293 [8] = experiment: EBV LMP1 TES2 canonical NF-kB signalling blockers – cell-based, HEK293, luciferase, cherry-pick, dose response (AID 588343); type: functional; details: Homo sapiens
HEK293 [9] = experiment: Cytotoxicity assay in HEK293 cells. [Related pubchem assays (depositor defined):AID1266, AID1269, AID1270, AID1271, AID1280, AID1281, AID1282, AID1283, AID1287, AID1289, AID1290, AID1291, AID1292, AID1293, AID1294, AID1295, AID1299, AID1302, AID1364, AID1365, AID1366, AID1367, AID1369, AID1370, AID1371, AID1372, AID1373, AID1374, AID1375, AID1384 …; type: functional, cell-based; details: Homo sapiens
[10] = target: Luciferin 4-monooxygenase (Photinus pyralis, UniProt P08659); experiment: In vitro luciferase assay using purified luciferase. [Related pubchem assays: 1299, 1270, 1295, 1375, 1287, 1281, 1293, 1291, 1289, 1280, 465, 1364, 1282, 1372, 1365, 1370, 1367, 1366, 1266, 1373, 1292, 1290, 1302, 1371, 1283, 1271, 1294, 1374, 1368, 1369 ]
Luciferin 4-monooxygenase, sequence (P08659 whole entry): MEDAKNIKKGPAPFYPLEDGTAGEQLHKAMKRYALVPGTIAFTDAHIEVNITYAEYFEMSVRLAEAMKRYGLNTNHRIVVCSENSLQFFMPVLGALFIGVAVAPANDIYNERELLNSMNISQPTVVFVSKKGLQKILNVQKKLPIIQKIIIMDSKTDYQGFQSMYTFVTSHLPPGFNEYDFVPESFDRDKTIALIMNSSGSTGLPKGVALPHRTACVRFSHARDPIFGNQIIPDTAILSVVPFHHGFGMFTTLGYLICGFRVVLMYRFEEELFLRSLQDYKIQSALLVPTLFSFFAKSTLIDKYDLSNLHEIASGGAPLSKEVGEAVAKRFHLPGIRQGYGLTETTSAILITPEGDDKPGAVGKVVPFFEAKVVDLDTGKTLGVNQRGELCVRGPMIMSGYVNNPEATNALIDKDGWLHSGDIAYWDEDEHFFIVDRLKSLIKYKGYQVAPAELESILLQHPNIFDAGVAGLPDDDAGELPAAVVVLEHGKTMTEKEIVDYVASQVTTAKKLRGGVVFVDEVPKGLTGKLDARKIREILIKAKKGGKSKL

HEK293 [11] = experiment: PMA/Ionomycin induced NF-kB luciferase assay in 293- NF-kB-Luc stable cells. [Related pubchem assays: 1299, 1270, 1295, 1375, 1287, 1281, 1293, 1291, 1289, 1280, 465, 1364, 1282, 1372, 1365, 1370, 1367, 1366, 1269, 1373, 1292, 1290, 1302, 1371, 1283, 1271, 1294, 1374, 1368, 1369 ]; type: functional, cell-based; details: Homo sapiens
[12] = target: Cystic fibrosis transmembrane conductance regulator/Golgi-associated PDZ and coiled-coil motif-containing protein (Homo sapiens, UniProt P13569+Q9HD26); experiment: potency against CAL PDZ-peptide interaction – biochemical, fluorescence polarization, Cerulean-tagged CAL PDZ, cherry-picks, dose response (AID 504773)
Cystic fibrosis transmembrane conductance regulator/Golgi-associated PDZ and coiled-coil motif-containing protein, sequence (P13569 whole entry, other chains not shown): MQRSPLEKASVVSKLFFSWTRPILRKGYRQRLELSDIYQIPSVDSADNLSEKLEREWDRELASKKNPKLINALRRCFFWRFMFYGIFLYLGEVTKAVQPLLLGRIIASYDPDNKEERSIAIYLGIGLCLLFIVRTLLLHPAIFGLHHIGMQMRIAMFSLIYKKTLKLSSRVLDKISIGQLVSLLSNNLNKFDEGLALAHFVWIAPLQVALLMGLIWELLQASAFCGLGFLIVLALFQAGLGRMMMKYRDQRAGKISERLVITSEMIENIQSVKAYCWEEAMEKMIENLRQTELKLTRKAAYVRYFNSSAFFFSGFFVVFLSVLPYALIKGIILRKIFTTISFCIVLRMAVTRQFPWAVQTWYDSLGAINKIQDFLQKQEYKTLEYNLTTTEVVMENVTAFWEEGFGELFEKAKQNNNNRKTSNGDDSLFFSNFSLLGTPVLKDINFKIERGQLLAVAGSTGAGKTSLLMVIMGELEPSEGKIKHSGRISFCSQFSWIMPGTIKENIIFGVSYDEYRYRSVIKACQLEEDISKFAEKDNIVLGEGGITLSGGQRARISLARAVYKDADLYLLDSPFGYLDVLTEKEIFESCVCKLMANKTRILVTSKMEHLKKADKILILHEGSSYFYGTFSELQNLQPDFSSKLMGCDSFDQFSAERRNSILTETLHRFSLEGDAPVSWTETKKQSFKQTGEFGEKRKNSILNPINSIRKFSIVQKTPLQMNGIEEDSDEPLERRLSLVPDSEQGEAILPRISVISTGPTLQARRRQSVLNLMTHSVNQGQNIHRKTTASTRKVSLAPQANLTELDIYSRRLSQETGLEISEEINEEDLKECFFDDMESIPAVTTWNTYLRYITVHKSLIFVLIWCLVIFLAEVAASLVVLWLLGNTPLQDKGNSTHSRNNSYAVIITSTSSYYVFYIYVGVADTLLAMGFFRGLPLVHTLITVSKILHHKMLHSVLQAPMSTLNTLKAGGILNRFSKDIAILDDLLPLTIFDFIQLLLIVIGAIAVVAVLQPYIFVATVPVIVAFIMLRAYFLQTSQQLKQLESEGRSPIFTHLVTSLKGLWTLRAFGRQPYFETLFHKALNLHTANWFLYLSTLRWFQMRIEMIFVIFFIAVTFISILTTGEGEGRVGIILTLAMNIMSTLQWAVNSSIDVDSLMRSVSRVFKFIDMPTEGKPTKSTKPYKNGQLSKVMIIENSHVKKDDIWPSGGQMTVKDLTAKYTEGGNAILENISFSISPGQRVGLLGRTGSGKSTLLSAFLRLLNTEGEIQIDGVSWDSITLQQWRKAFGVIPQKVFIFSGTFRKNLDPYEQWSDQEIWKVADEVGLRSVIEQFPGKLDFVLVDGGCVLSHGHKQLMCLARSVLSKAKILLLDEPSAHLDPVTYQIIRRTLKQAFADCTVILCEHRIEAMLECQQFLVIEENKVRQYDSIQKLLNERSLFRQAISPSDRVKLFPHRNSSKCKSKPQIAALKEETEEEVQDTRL

[13] = rescue of ΔF508 CFTR function, airway epithelium – human bronchial epithelial cells, plate reader, cherry-pick, two tests, dose response (AID 743267); type: functional, cell-based
ORF 73 = ORF 73 (Human herpesvirus 8, UniProt O40947); experiment: KSHV LANA DNA-binding disruption – biochemical, fluorescence polarization, cherry-picked samples, dose response (AID 504725); set-up: species or system Human gammaherpesvirus 8;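 also: fluorescence polarization of a labeled DNA duplex reporting LANA DNA binding; potency is for inhibitors that block LANA binding to the DNA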
Salmon testes DNA = experiment: acridine orange-DNA binding displacement – biochemical, fluorescence polarization, cherry-picked samples, set 2, artefact control for KSHV LANA DNA-binding inhibitor project, dose response (AID 504727); set-up: species or system Salmonidae
Streptococcus = experiment: GAS UMAA2166 growth inhibition – luminescence, BacTiterGlo, counter-screen for streptokinase expression inhibitor project, dose response (AID 1915); type: functional, organism-based;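 also: potency for reduction of bacterial viability or growth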
Streptokinase A = target: T3, Streptokinase A (Streptococcus pyogenes serotype M1, UniProt P10520); experiment: viability-normalized secreted streptokinase activity reduction – plasminogen activation absorbance, OD405, dose response (AID 1914); type: functional, Streptococcus pyogenes M1 GAS;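 also: secreted streptokinase activity via plasminogen activation per viability signal from cell pellet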
T3 sequence (P10520 whole entry): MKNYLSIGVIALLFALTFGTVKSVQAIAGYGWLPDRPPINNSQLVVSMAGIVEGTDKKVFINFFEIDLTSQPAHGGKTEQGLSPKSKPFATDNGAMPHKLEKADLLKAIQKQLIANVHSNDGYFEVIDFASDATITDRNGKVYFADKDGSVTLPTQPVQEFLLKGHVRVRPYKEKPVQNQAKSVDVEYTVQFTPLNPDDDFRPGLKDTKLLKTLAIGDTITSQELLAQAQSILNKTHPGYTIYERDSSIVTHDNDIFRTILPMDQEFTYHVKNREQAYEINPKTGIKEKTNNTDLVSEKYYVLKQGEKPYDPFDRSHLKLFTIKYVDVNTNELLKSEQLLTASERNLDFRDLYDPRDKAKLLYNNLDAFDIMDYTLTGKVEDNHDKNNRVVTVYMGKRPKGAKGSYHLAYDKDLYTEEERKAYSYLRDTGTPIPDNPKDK

X-box-binding protein 1 = X-box-binding protein 1 (Homo sapiens, UniProt P17861); type: functional, Cricetulus griseus;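 also: confirmatory dose-response counter-screen serving a CHOP assay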
[14] = test system: Streptococcus sp. 'group A'; experiment: Streptococcus pyogenes SK(-)GAS viability under kanamycin – luminescence, BacTiterGlo, confirmation, counter-screen for streptokinase expression inhibitor project, dose response (AID 1900); type: functional, organism-based

Scavenger receptor class B member 1, sequence (Q61009 whole entry): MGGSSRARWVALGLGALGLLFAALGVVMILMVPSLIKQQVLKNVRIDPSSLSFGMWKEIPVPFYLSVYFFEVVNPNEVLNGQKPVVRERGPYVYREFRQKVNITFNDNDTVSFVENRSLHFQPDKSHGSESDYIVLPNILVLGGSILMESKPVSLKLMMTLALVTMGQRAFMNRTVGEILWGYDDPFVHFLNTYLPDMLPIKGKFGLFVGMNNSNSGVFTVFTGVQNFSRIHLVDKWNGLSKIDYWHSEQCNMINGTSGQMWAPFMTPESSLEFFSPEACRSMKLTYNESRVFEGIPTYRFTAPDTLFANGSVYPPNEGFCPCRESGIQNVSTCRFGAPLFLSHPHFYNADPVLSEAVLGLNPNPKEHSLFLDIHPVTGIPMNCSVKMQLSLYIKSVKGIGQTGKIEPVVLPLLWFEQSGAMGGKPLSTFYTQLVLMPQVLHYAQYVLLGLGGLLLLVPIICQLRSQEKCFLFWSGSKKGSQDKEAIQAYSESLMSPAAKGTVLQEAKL

Structure (SMILES): CN1CCc2ccc(NC(=O)c3ccc(C(F)(F)F)cc3)cc2C1
- AC50 [1]: 90.7 µM (active)

Structure (SMILES): O=C(NC(=S)Nc1sc2c(c1C(=O)O)CCCC2)c1ccccc1
- IC50 (HEK293 [2]): > 20 µM (inactive)
- IC50 (Tumor necrosis factor): 15.5 µM (active)
- IC50 [3]: 17.3 µM (active)
- IC50 [4]: 14.4 µM (active)

Structure (SMILES): O=c1oc2ccccc2c2oc3cc(O)c(O)cc3c12
- IC50 [5]: 6.69 µM (active)
- AC50 (Caspase-7): 59.8 µM (active)
- AC50 (Caspase-6): 4.48 µM (active)
- IC50 (Albumin): > 94.2 µM (inactive)
- IC50 (Large T antigen): 6.52 µM (active)
- AC50 (Caspase-3): 22.1 µM (active)
- AC50 (Caspase-8): > 70 µM (inactive)
- IC50 [6]: 3.52 µM (active)

Structure (SMILES): CCOc1ccc2c(c1)sc(N)[n+]2Cc1cc(C)cc2cccnc12
- IC50 [7]: > 80 µM (inactive)
- IC50 (J774.A1): 0.229 µM (active)

Structure (SMILES): COc1cc(OC)cc(-c2cc3nc(C)c(CCC(=O)O)c(C)n3n2)c1
- AC50 (HEK293 [8]): 0.719 µM (active)
- EC50 (HEK293 [9]): > 8 µM (inactive)
- EC50 [10]: > 8 µM (not active)
- EC50 (HEK293 [11]): 4.19 µM (not active)

Structure (SMILES): c1ccc(C(Nc2cccnc2)c2ccccc2)cc1
- AC50 [12]: 33 µM (active)

Structure (SMILES): CN1C(=O)/C(=N\C2CCCCC2)c2c3ccccc3c(O)c3cccc1c23
- AC50 [13]: 8.48 µM (active)
- AC50 (ORF 73): 77.3 µM (active)
- AC50 (Salmon testes DNA): 101 µM (active)

Structure (SMILES): Cc1cccc(NCC(=O)N/N=C\c2cccc(Oc3ccccc3)c2)c1
- EC50 (Streptococcus): > 150 µM (not active)
- EC50 (Streptokinase A): > 150 µM (not active)
- Absolute IC50 (XBP1) (X-box-binding protein 1): 10 µM
- EC50 [14]: > 150 µM (not active)
